Measured values reported in patent US20250262333A1, “Construct for Transferring Foreign Substance, and Use Thereof” (TOAGOSEI CO., LTD., priority 2022, published 2025).
FAM = 5(6)-carboxyfluorescein (C21H12O7), a fluorescent dye

Tested on: HeLa cells
Assay: Evaluation of cell membrane penetration by flow cytometry
Assay type: cell-based, human
Conditions: 10 μM additive, 0.5% DMSO, 20 hours at 37° C., 5% CO2, FAM fluorescence, detector FL2
Experimental: As the eukaryotic cells, HeLa cells (established cell strain derived from a human cervical cancer cell) were used and the cell membrane penetration of the peptides 1 to 6 was analyzed. In Examples 1 to 6, the prepared samples 1 to 6 were used, respectively, and in Example 7, the FAM solution was used.
The HeLa cell was cultured in 10% fetal bovine serum (FBS)-containing Dulbecco's modified Eagle's medium (DMEM (Cat No. 043-30085, manufactured by FUJIFILM Wako Pure Chemical Corporation)), which is a normal culture medium.
The HeLa cell that adhered to a culture plate was cleaned with PBS and then, a 0.25%-trypsin/EDTA solution was added thereto, and incubation was performed for three minutes at 37° C. After the incubation, the aforementioned 10% FBS-containing DMEM was added to deactivate trypsin and then, five-minute centrifugal separation was performed at 150×g to precipitate the cells. After the supernatant generated by the centrifugal separation was removed, the 10% FBS-containing DMEM was added to the precipitate (cell pellet) to prepare a cell suspension of about 2×10^5 cells/mL. The cell suspension was added by 1 mL to a well of a commercially available six-hole (well) plate (manufactured by AGC TECHNO GLASS Co., Ltd.) so as to seed the cell (about 2×10^5 cells/well). In addition, the 2 mM sample solution 1 was diluted with the 10% FBS-containing DMEM to prepare the sample solution 1 in which the concentration of the sample 1 was 20 μM. Then, 1 mL of the 20 μM sample solution 1 was added to the well (that is, so that the concentration of the sample 1 became 10 μM and the DMSO concentration became 0.5% in the culture solution in the well). After that, the cell was incubated for 20 hours at 37° C. under a 5% CO2 condition.
After the 20-hour incubation, the culture supernatant was removed from the well and the cells in the well were cleaned twice with 1 mL of PBS. Next, 200 μL of the 0.25% trypsin/EDTA solution was added to the well and the incubation was performed for three minutes at 37° C. After the incubation, 400 μL of the 10% FBS-containing DMEM was added to the well to deactivate the trypsin. Subsequently, the cell suspension in the well was transferred to a tube and the cells were collected. After that, 600 μL of PBS was added further to the well to clean the well. Then, PBS in the well was transferred to the tube, so that the cells remaining in the well were collected in the tube. This tube was subjected to five-minute centrifugal separation at 4° C. under a condition of 210×g. After the centrifugal separation, the supernatant was removed and the precipitate (cell pellet) was suspended (cleaned) with 1 mL of PBS, which was followed by the centrifugal separation under the same condition as that described above. After this operation was repeated twice, the supernatant was removed and thus, the cells (cell pellet) cultured in a culture medium containing the sample 1 were obtained.
Regarding the obtained cells (cell pellet), the cell membrane penetration of the sample 1 was analyzed using a flow cytometer. As the flow cytometer, On-Chip Flowcytometer (manufactured by On-Chip Biotechnologies Co., LTD.) was used.
For such an analysis, the obtained cell pellet was suspended with 50 μL of PBS. To this suspension, additionally, 50 μL of 2× sample buffer for the flow cytometer was added so as to prepare a cell suspension for analysis.
Using the aforementioned flow cytometer, gating based on forward scatter (FSC) and side scatter (SSC) was performed to set a gate about a cell group to be analyzed, and the fluorescence intensity was measured about the cell group in this gate. Note that the analysis was performed so that the cell group contained at least 10000 or more cells. The fluorescence intensity was measured using a fluorescence detector FL2 of the flow cytometer (optimum detection wavelength around 543 nm) capable of detecting the fluorescence wavelength of FAM. […]

| Substance | MFI (mean fluorescence intensity) |
| --- | --- |
| 5 (6)-carboxyfluorescein [Example 7, reference compound] | 10.5 |
| Ac-KSKKYTSWYVALKR-FAM (Ac-KSKKYTSWYVALKR-{FAM}) [Example 3] | 14.6 |
| Ac-KSRKYTSWYVALKR-FAM (Ac-KSRKYTSWYVALKR-{FAM}) [Example 4] | 13.2 |
| Ac-RSKKYTSWYVALKR-FAM (Ac-RSKKYTSWYVALKR-{FAM}) [Example 5] | 12.8 |
| Ac-RSRKYTSWYVALKK-FAM [Example 6] | 11.1 |
| Ac-RSRKYTSWYVALKR-FAM (Ac-RSRKYTSWYVALKR-{FAM}) [Example 2, reference compound] | 13.4 |
| Ac-RSRKYTSWYVALKRWPC-FAM (Ac-RSRKYTSWYVALKRWPC-{FAM}) [Example 1] | 50.4 |

Same assay, conditions: 10 μM, 20 hours, compared with Example 2 (construct including the peptide 2)

| Substance | cell membrane penetration / value of MFI, comparison in words |
| --- | --- |
| Ac-RSRKYTSWYVALKRWPC-FAM (Ac-RSRKYTSWYVALKRWPC-{FAM}) [Example 1] | remarkably higher |
